# In ChEMBL document CHEMBL1649364, “Synthesis and antifungal activity of some substituted phenothiazines and related compounds” (2011):
# Activity calls are given as the source filed them. The rule behind the calls is not given here.
# Columns and labels:
# [1] = system: Meyerozyma guilliermondii; test: Antifungal activity against Candida guilliermondii by microdilution test; type: functional
# Aspergillus flavus = test: Antifungal activity against Aspergillus flavus by microdilution test; type: functional
# Candida albicans = test: Antifungal activity against Candida albicans by microdilution test; type: functional
# Aspergillus terreus = test: Antifungal activity against Aspergillus terreus by microdilution test; type: functional
# [2] = Antifungal activity against Exophiala xenobiotica by microdilution test; type: functional
# [3] = Antifungal activity against Aspergillus fumigates by microdilution test; type: functional
# Nakaseomyces glabratus = test: Antifungal activity against Candida glabrata by microdilution test; type: functional
# Candida parapsilosis = test: Antifungal activity against Candida parapsilosis by microdilution test; type: functional; conditions: for MIC: Lodderomyces parapsilosis
# Exophiala spinifera = test: Antifungal activity against Exophiala spinifera by microdilution test; type: functional
# Aspergillus niger = test: Antifungal activity against Aspergillus niger by microdilution test; type: functional
# Pichia kudriavzevii = test: Antifungal activity against Candida krusei by microdilution test; type: functional
# Cryptococcus neoformans = test: Antifungal activity against Cryptococcus neoformans by microdilution test; type: functional
# [4] = Antifungal activity against Cladophialophora carrionii by microdilution test; type: functional
# [5] = Antifungal activity against Exophiala oligosperma by microdilution test; type: functional
# Aspergillus nidulans = test: Antifungal activity against Aspergillus nidulans by microdilution test; type: functional, organism-based
Compound,MIC [1],MIC (Aspergillus flavus),MIC (Candida albicans),MIC (Aspergillus terreus),MIC [2],MIC [3],MIC (Nakaseomyces glabratus),MIC (Candida parapsilosis),MIC (Exophiala spinifera),MIC (Aspergillus niger),MIC (Pichia kudriavzevii),Activity [1],Activity (Aspergillus flavus),Activity (Cryptococcus neoformans),Activity (Candida albicans),Activity (Aspergillus terreus),Activity [2],Activity [3],Activity (Nakaseomyces glabratus),Activity (Candida parapsilosis),further results
C[C@@H]1[C@H](O)[C@@H](C)/C=C/C=C/C=C/C=C/C=C/C=C/C=C/[C@H](O[C@@H]2O[C@H](C)[C@@H](O)[C@H](N)[C@@H]2O)C[C@@H]2O[C@](O)(C[C@@H](O)C[C@@H](O)[C@H](O)CC[C@@H](O)C[C@@H](O)CC(=O)O[C@H]1C)C[C@H](O)[C@H]2C(=O)O [AMPHOTERICIN B],1 µg/mL,0.25 µg/mL,0.5 µg/mL,2 µg/mL,1 µg/mL,0.5 µg/mL,0.25 µg/mL,0.5 µg/mL,1 µg/mL,0.5 µg/mL,0.25 µg/mL,–,–,–,–,–,–,–,–,–,–
O=C(CCl)N(c1ccccc1)c1ccccc1,–,–,–,–,–,–,–,–,–,–,–,inactive,inactive,inactive,inactive,inactive,inactive,inactive,inactive,inactive,Activity (Exophiala spinifera): inactive; Activity [4]: inactive; Activity [5]: inactive; Activity (Aspergillus niger): inactive; Activity (Pichia kudriavzevii): inactive; Activity (Aspergillus nidulans): inactive
ClCCCN1c2ccccc2Sc2ccccc21,–,–,–,–,–,–,–,–,–,–,–,inactive,inactive,inactive,inactive,inactive,inactive,inactive,inactive,inactive,Activity (Exophiala spinifera): inactive; Activity [4]: inactive; Activity [5]: inactive; Activity (Aspergillus niger): inactive; Activity (Pichia kudriavzevii): inactive; Activity (Aspergillus nidulans): inactive
CCC(C)n1ncn(-c2ccc(N3CCN(c4ccc(OCC5COC(Cn6cncn6)(c6ccc(Cl)cc6Cl)O5)cc4)CC3)cc2)c1=O (configuration not stated) [ITRACONAZOLE],0.5 µg/mL,0.125 µg/mL,0.125 µg/mL,0.125 µg/mL,0.06 µg/mL,0.25 µg/mL,0.25 µg/mL,0.125 µg/mL,0.06 µg/mL,0.125 µg/mL,0.06 µg/mL,–,–,–,–,–,–,–,–,–,MIC (Cryptococcus neoformans): 0.25 µg/mL; MIC [4]: 0.06 µg/mL; MIC [5]: 0.125 µg/mL
CN(C)S(=O)(=O)c1ccc2c(c1)N(CCCN1CCC(CCO)CC1)c1ccccc1S2 [PIPOTIAZINE],256 µg/mL,> 512 µg/mL,256 µg/mL,> 512 µg/mL,512 µg/mL,> 512 µg/mL,256 µg/mL,256 µg/mL,256 µg/mL,> 512 µg/mL,512 µg/mL,–,–,–,–,–,–,–,–,–,MIC (Cryptococcus neoformans): 256 µg/mL; MIC [4]: 256 µg/mL; MIC [5]: 512 µg/mL
Nc1nc(=O)[nH]cc1F [FLUCYTOSINE],1 µg/mL,1 µg/mL,2 µg/mL,1 µg/mL,8 µg/mL,0.5 µg/mL,1 µg/mL,0.5 µg/mL,2 µg/mL,0.5 µg/mL,0.5 µg/mL,–,–,–,–,–,–,–,–,–,MIC (Cryptococcus neoformans): 0.5 µg/mL; MIC [4]: 1 µg/mL; MIC [5]: 4 µg/mL
O=C(CCl)N1c2ccccc2Sc2ccccc21,32 µg/mL,32 µg/mL,32 µg/mL,16 µg/mL,16 µg/mL,16 µg/mL,> 512 µg/mL,32 µg/mL,16 µg/mL,2 µg/mL,32 µg/mL,–,–,–,–,–,–,–,–,–,MIC (Cryptococcus neoformans): 8 µg/mL; MIC [4]: 4 µg/mL; MIC [5]: 16 µg/mL
CN(C)S(=O)(=O)c1ccc2c(c1)N(C(=O)CCCl)c1ccccc1S2,–,–,–,–,–,–,–,–,–,–,–,inactive,inactive,inactive,inactive,inactive,inactive,inactive,inactive,inactive,Activity (Exophiala spinifera): inactive; Activity [4]: inactive; Activity [5]: inactive; Activity (Aspergillus niger): inactive; Activity (Pichia kudriavzevii): inactive; Activity (Aspergillus nidulans): inactive
CC(=O)N1c2ccccc2Sc2ccccc21,–,–,–,–,–,–,–,–,–,–,–,inactive,inactive,inactive,inactive,inactive,inactive,inactive,inactive,inactive,Activity (Exophiala spinifera): inactive; Activity [4]: inactive; Activity [5]: inactive; Activity (Aspergillus niger): inactive; Activity (Pichia kudriavzevii): inactive; Activity (Aspergillus nidulans): inactive
